Laboratory results from ChEMBL document CHEMBL1201862, “PubChem BioAssay data set” (2004).
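Dose response: 5 concentrations. Exposure: 48 h. Format: 96-well plates. Endpoint: linear interpolation; highest concentration if not reached. Here, GI50 denotes the concentration required for 50% inhibition of growth.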 Calls of active or inactive are those of the source. Rule as the data show it: active = GI50 up to about 1.1 µM and inactive = higher.

Experiments:
Assay in all cases: NCI-60 cell line screen, 48 h
[1] = tested on: HCT-15
[2] = tested on: OVCAR-8
[3] = tested on: UACC-257
[4] = tested on: SNB-75
[5] = tested on: HT-29
[6] = tested on: SK-MEL-5
[7] = tested on: OVCAR-4
[8] = tested on: KM12
[9] = tested on: RPMI-8226
[10] = tested on: NCI-H226
[11] = tested on: HCC 2998
[12] = tested on: NCI-H23
[13] = tested on: SW-620
[14] = tested on: MOLT-4
[15] = tested on: OVCAR-3
[16] = tested on: CAKI-1
[17] = tested on: Hs-578T
[18] = tested on: UACC-62
[19] = tested on: U-251
[20] = tested on: SR
[21] = tested on: SK-OV-3
[22] = tested on: A549
[23] = tested on: A498
[24] = tested on: SK-MEL-28
[25] = tested on: MCF7
[26] = tested on: HCT-116
[27] = tested on: SF-539
[28] = tested on: NCI-H522
[29] = tested on: MDA-MB-435
[30] = tested on: LOX IMVI
[31] = tested on: HOP-92
[32] = tested on: EKVX
[33] = tested on: SN12C
[34] = tested on: OVCAR-5
[35] = tested on: SK-MEL-2
[36] = tested on: IGROV-1
[37] = tested on: Malme-3M
[38] = tested on: RXF 393
[39] = tested on: T47D
[40] = tested on: HL-60
[41] = tested on: UO-31
[42] = tested on: M14
[43] = tested on: 786-0
[44] = tested on: NCI/ADR-RES
[45] = tested on: MDA-N
[46] = tested on: DU-145
[47] = tested on: PC-3
[48] = tested on: TK-10
[49] = tested on: MDA-MB-231
[50] = tested on: CCRF-CEM
[51] = tested on: NCI-H460
[52] = tested on: HOP-62
[53] = tested on: COLO 205
[54] = tested on: K562
[55] = tested on: SF-268
[56] = tested on: ACHN
[57] = tested on: SNB-19
[58] = tested on: BT-549
[59] = tested on: SF-295

## O=C(NCCSSCCNC(=O)/C(Cc1ccc(O)c(Br)c1)=N/O)/C(Cc1ccc(O)c(Br)c1)=N/O [PSAMMAPLIN A]
[1]
  GI50: 4.89 µM
[2]
  GI50: 1.52 µM (inactive)
[3]
  GI50: 1.6 µM (inactive)
[4]
  GI50: 889 nM (active)
[5]
  GI50: 1.35 µM (inactive)
[6]
  GI50: 927 nM (active)
[7]
  GI50: 3.1 µM (inactive)
[8]
  GI50: 1.47 µM (inactive)
[9]
  GI50: 1.36 µM (inactive)
[10]
  GI50: 9.82 µM (inactive)
[11]
  GI50: 2.17 µM (inactive)
[12]
  GI50: 3.2 µM (inactive)
[13]
  GI50: 1.64 µM (inactive)
[14]
  GI50: 402 nM (active)
[15]
  GI50: 1.87 µM (inactive)
[16]
  GI50: 1.47 µM (inactive)
[17]
  GI50: 1.77 µM (inactive)
[18]
  GI50: 1.72 µM (inactive)
[19]
  GI50: 1.1 µM (active)
[20]
  GI50: 380 nM (active)
[21]
  GI50: 933 nM (active)
[22]
  GI50: 1.44 µM (inactive)
[23]
  GI50: 2.9 µM (inactive)
[24]
  GI50: 3.16 µM (inactive)
[25]
  GI50: 2.02 µM (inactive)
[26]
  GI50: 1.39 µM (inactive)
[27]
  GI50: 1.72 µM (inactive)
[28]
  GI50: 682 nM (active)
[29]
  GI50: 1.51 µM (inactive)
[30]
  GI50: 1.3 µM (inactive)
[31]
  GI50: 4.01 µM (inactive)
[32]
  GI50: 4.49 µM (inactive)
[33]
  GI50: 1.43 µM (inactive)
[34]
  GI50: 2.21 µM (inactive)
[35]
  GI50: 1.1 µM (active)
[36]
  GI50: 1.17 µM (inactive)
[37]
  GI50: 597 nM (active)
[38]
  GI50: 796 nM (active)
[39]
  GI50: 3.71 µM (inactive)
[40]
  GI50: 426 nM (active)
[41]
  GI50: 1.74 µM (inactive)
[42]
  GI50: 1.32 µM (inactive)
[43]
  GI50: 2.07 µM (inactive)
[44]
  GI50: 1.29 µM (inactive)
[45]
  GI50: 1.6 µM (inactive)
[46]
  GI50: 1.89 µM (inactive)
[47]
  GI50: 1.61 µM (inactive)
[48]
  GI50: 2.92 µM (inactive)
[49]
  GI50: 1.78 µM (inactive)
[50]
  GI50: 377 nM (active)
[51]
  GI50: 902 nM (active)
[52]
  GI50: 885 nM (active)
[53]
  GI50: 1.64 µM (inactive)
[54]
  GI50: 1.81 µM (inactive)
[55]
  GI50: 1.62 µM (inactive)
[56]
  GI50: 1.62 µM (inactive)
[57]
  GI50: 2.08 µM (inactive)
[58]
  GI50: 6.21 µM (inactive)
[59]
  GI50: 1.34 µM (inactive)
